For one assay, the system named is MKN45 cells. The experiment in a line: Test D: cellular proliferation by 14C-thymidine pulse, MKN45 cells. It counts as cell-based. Particulars: Homo sapiens, MKN-45, cellular proliferation by 14C-thymidine pulse; cell line not stated (HCT116 or MKN45). A digest of the protocol:
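MKN45 cells (7500/well, RPMI + 10% foetal calf serum) treated with 10 concentrations, 10000 to 0.3 nM in 3-fold steps, duplicate. 14C-thymidine (0.1 μCi/well) added at 72 h; incorporation counted after 24 h pulse, 96 h total treatment.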

A further assay has as its target T1, c-MET (Homo sapiens, UniProt P08581).
T1 construct: The recombinant DNA His-Tev-MET (956-1390) in pFastBac(Invitrogen); His (N, cleaved yes); Tev (TEV protease site) (N, cleaved yes); made in house; host or cells: SF21 insect cells (baculovirus, pFastBac)
Kind of assay: Test A: HTRF Met test in 96-well format. It counts as biochemical. The method, boiled down: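 Percent inhibition was calculated from the HTRF 665/620 ratio, using Eu-cryptate anti-phosphotyrosine PT66 plus streptavidin-XL added with EDTA and read after 2 h. The reaction ran 10 min at room temperature: 5 nM tag-cleaved MET (956–1390), 10 µM ATP, 1 µg/ml poly-GAT, and compound from 0.17 nM to 10 µM in 3% DMSO.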
(In TR-FRET formats the signal depends on donor and acceptor labels being close together.)

A further assay has as its target RON (Homo sapiens, UniProt Q04912). Kind of assay: Test B: HTRF RON test in 96-well format. It counts as biochemical. The method, boiled down:
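RON 5 nM pre-incubated 30 min at RT with compound (0.17 nM–10 μM final, 3% DMSO) in MOPS 10 mM pH 7, DTT, Tween 20. Reaction with biotinylated poly-(GAT) 1 μg/ml, ATP 10 μM, MgCl2 5 mM, 30 min RT. Eu-anti-pTyr/streptavidin-XL665 HTRF, 665/620 ratio gives % inhibition, IC50.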

Structures can show the parent of a compound that is named as a salt.

RON, sequence (Q04912 25-1400): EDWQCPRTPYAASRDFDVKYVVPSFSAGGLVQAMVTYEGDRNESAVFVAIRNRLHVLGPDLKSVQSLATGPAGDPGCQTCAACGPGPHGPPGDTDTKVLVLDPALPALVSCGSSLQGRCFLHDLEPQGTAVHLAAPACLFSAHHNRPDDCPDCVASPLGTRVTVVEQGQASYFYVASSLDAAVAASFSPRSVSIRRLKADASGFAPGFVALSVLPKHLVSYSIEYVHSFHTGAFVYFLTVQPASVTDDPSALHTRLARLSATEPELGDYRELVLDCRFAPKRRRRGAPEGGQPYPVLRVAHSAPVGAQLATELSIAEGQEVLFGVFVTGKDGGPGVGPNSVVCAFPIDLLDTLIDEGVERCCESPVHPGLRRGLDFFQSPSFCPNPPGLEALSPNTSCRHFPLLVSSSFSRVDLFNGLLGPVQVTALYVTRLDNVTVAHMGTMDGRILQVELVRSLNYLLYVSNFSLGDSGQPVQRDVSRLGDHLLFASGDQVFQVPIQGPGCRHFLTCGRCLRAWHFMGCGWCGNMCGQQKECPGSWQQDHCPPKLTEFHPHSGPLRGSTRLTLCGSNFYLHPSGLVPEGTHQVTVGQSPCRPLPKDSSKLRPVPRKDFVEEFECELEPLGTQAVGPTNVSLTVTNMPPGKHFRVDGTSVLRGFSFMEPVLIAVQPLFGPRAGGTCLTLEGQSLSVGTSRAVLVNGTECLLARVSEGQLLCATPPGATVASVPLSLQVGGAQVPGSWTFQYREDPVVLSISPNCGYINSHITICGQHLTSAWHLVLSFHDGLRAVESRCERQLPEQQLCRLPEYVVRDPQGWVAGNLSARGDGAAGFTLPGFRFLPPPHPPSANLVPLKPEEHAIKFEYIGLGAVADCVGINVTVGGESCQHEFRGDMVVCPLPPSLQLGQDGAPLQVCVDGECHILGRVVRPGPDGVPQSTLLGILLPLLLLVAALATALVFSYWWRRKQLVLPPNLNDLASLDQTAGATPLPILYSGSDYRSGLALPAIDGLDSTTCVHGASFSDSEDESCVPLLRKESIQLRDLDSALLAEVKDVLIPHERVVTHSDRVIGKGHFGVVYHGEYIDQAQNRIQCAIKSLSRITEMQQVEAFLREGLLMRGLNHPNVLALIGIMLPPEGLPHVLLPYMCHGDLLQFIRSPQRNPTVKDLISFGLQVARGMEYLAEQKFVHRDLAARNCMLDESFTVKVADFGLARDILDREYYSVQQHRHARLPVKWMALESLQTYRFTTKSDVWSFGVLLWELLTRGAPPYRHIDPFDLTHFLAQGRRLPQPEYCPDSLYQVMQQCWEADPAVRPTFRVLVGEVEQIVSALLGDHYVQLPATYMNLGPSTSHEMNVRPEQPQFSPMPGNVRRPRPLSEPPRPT
T1 sequence (P08581 956-1390): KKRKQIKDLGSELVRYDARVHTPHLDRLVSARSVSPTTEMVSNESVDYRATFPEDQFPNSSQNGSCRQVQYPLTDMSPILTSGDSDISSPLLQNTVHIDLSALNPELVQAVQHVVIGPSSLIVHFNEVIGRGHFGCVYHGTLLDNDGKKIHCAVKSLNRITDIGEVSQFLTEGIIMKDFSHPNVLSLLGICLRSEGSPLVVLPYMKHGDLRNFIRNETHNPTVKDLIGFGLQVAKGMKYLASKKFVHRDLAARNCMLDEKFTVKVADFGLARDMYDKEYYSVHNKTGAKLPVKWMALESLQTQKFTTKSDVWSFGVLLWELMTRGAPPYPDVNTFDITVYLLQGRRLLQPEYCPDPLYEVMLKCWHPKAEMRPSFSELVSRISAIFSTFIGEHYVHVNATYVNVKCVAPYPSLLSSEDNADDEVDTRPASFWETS

Usually IC50 stands for the concentration needed to halve the response being measured. Lower therefore signals greater potency in that assay. Turning to `CC(Oc1ccc2nc(NC(=O)NCCN3CCOCC3)sc2c1)c1c(F)cccc1F` (stereo not drawn) [Example 18, 1-{6-[1-(2,6-difluorophenyl)ethoxy]-1,3-benzothiazol-2-yl}-3-(2-morpholin-4-ylethyl)urea], the IC50 with MKN45 cells was 0.5 to 10 µM; on c-MET, less than 100 nM; against RON it was 500 to 10000 nM.
The corresponding values for `CC(Oc1ccc2nc(NC(=O)NCCN3CCOCC3)sc2c1)c1ccccc1C(F)(F)F` (stereo not drawn) [Example 19, 1-(2-morpholin-4-ylethyl)-3-(6-{1-[2-(trifluoromethyl)phenyl]ethoxy}-1,3-benzothiazol-2-yl)urea] are more than 10 µM, less than 100 nM and 500 to 10000 nM.
`O=C(NCCN1CCOCC1)Nc1nc2cc(F)c(OCc3c(Cl)cccc3Cl)cc2s1` [Example 21, 1-{6-[(2,6-dichlorobenzyl)oxy]-5-fluoro-1,3-benzothiazol-2-yl}-3-(2-morpholin-4-ylethyl)urea]: the IC50 in the assay on MKN45 cells is 0.5 to 10 µM; on c-MET it was less than 100 nM; at RON, 500 to 10000 nM.
Taken in the same sequence, the figures for `CC(Oc1ccc2nc(NC(=O)NCCN3CCOCC3)sc2c1)c1c(Cl)ccc(F)c1Cl` (stereo not drawn) [Example 24, 1-{6-[1-(2,6-dichloro-3-fluorophenyl)ethoxy]-1,3-benzothiazol-2-yl}-3-(2-morpholin-4-ylethyl)urea] were less than 0.5 µM, less than 100 nM and less than 500 nM.
Taken in the same sequence, the figures for `Cc1ccc(F)c(C(C)Oc2ccc3nc(NC(=O)NCCN4CCOCC4)sc3c2)c1Cl` (stereo not drawn) [Example 28, 1-{6-[1-(2-chloro-6-fluoro-3-methylphenyl)ethoxy]-1,3-benzothiazol-2-yl}-3-(2-morpholin-4-ylethyl)urea] were more than 10 µM, less than 100 nM and 500 to 10000 nM.
Taken in the same sequence, the figures for `CC(Oc1cc2sc(NC(=O)NCCN3CCOCC3)nc2cc1F)c1c(Cl)cccc1Cl` (stereo not drawn) [Example 29, 1-{6-[1-(2,6-dichlorophenyl)ethoxy]-5-fluoro-1,3-benzothiazol-2-yl}-3-(2-morpholin-4-ylethyl)urea] were 0.5 to 10 µM, less than 100 nM and less than 500 nM.
For `CC(Oc1cc2sc(NC(=O)NCCN3CCOCC3)nc2cc1F)c1c(Cl)ccc(F)c1Cl` (stereo not drawn) [Example 31, 1-{6-[1-(2,6-dichloro-3-fluorophenyl)ethoxy]-5-fluoro-1,3-benzothiazol-2-yl}-3-(2-morpholin-4-ylethyl)urea], the half-maximal inhibitory concentration (IC50) with MKN45 cells is 0.5 to 10 µM; against c-MET it was less than 100 nM; at RON, less than 500 nM.
The corresponding values for `CC(Oc1ccc2nc(NC(=O)NCCN3CCC(Cc4ccccc4)CC3)sc2c1)c1c(Cl)ccc(F)c1Cl` (stereo not drawn) [Example 34, 1-[2-(4-benzylpiperidin-1-yl)ethyl]-3-{6-[1-(2,6-dichloro-3-fluorophenyl)ethoxy]-1,3-benzothiazol-2-yl}urea] are more than 10 µM, less than 100 nM and 500 to 10000 nM.
On to `CC(Oc1ccc2nc(NC(=O)NCCN3CCN(Cc4ccccc4)CC3)sc2c1)c1c(Cl)ccc(F)c1Cl` (stereo not drawn) [Example 35, 1-[2-(4-benzylpiperazin-1-yl)ethyl]-3-{6-[1-(2,6-dichloro-3-fluorophenyl)ethoxy]-1,3-benzothiazol-2-yl}urea], for which the figures for the IC50 in the assay with MKN45 cells, at c-MET and at RON were more than 10 µM, less than 100 nM and 500 to 10000 nM, respectively.
The corresponding values for `CC(Oc1ccc2nc(NC(=O)NCCN3CCN(C(=O)OC(C)(C)C)CC3)sc2c1)c1c(Cl)ccc(F)c1Cl` (stereo not drawn) [Example 36, 1,1-dimethylethyl 4-{2-[({6-[1-(2,6-dichloro-3-fluorophenyl)ethoxy]-1,3-benzothiazol-2-yl}carbamoyl)amino]ethyl}piperazine-1-carboxylate] are more than 10 µM, less than 100 nM and 500 to 10000 nM.
Taken in the same sequence, the figures for `CC(Oc1ccc2nc(NC(=O)NCCN3CCNCC3)sc2c1)c1c(Cl)ccc(F)c1Cl.O=C(O)C(F)(F)F` (stereo not drawn) [Example 37, 1-{6-[1-(2,6-Dichloro-3-fluorophenyl)ethoxy]-1,3-benzothiazol-2-yl}-3-(2-piperazin-1-ylethyl)urea trifluoroacetate] were 0.5 to 10 µM, 100 to 10000 nM and less than 500 nM.
The corresponding values for `CC(Oc1ccc2nc(NC(=O)NCCC3CCNCC3)sc2c1)c1c(Cl)ccc(F)c1Cl` (stereo not drawn) [Example 39, 1-{6-[1-(2,6-Dichloro-3-fluorophenyl)ethoxy]-1,3-benzothiazol-2-yl}-3-(2-piperidin-4-ylethyl)urea trifluoroacetate] are 0.5 to 10 µM, less than 100 nM and less than 500 nM.
Regarding `CC(Oc1ccc2nc(NC(=O)NCCCn3cccc3)sc2c1)c1c(Cl)ccc(F)c1Cl` (stereo not drawn) [Example 40, 1-{6-[1-(2,6-dichloro-3-fluorophenyl)ethoxy]-1,3-benzothiazol-2-yl}-3-[3-(1H-pyrrol-1-yl)propyl]urea], the values for the IC50 in the assay with MKN45 cells, against c-MET and against RON were more than 10 µM, less than 100 nM and 500 to 10000 nM, respectively.
The corresponding values for `CC(Oc1ccc2nc(NC(=O)NCCCN3CCC(Cc4ccccc4)CC3)sc2c1)c1c(Cl)ccc(F)c1Cl` (stereo not drawn) [Example 41, 1-[3-(4-benzylpiperidin-1-yl)propyl]-3-{6-[1-(2,6-dichloro-3-fluorophenyl)ethoxy]-1,3-benzothiazol-2-yl}urea] are more than 10 µM, less than 100 nM and 500 to 10000 nM.
Take `CC(Oc1ccc2nc(NC(=O)NCCCN3CCOCC3)sc2c1)c1c(Cl)ccc(F)c1Cl` (stereo not drawn) [Example 42, 1-{6-[1-(2,6-dichloro-3-fluorophenyl)ethoxy]-1,3-benzothiazol-2-yl}-3-(3-morpholin-4-ylpropyl)urea]: the IC50 in the assay on MKN45 cells was 0.5 to 10 µM; against c-MET, less than 100 nM; against RON it was 500 to 10000 nM.
As to `CC(Oc1ccc2nc(NC(=O)NCCCN(C)C)sc2c1)c1c(Cl)ccc(F)c1Cl` (stereo not drawn) [Example 43, 1-{6-[1-(2,6-dichloro-3-fluorophenyl)ethoxy]-1,3-benzothiazol-2-yl}-3-[3-(dimethylamino)propyl]urea], the 50% inhibitory concentration (IC50) is more than 10 µM in the assay with MKN45 cells, less than 100 nM at c-MET and less than 500 nM against RON.
With `CC(Oc1ccc2nc(NC(=O)NCCCN3CCCCC3)sc2c1)c1c(Cl)ccc(F)c1Cl` (stereo not drawn) [Example 44, 1-{6-[1-(2,6-dichloro-3-fluorophenyl)ethoxy]-1,3-benzothiazol-2-yl}-3-(3-piperidin-1-ylpropyl)urea], the IC50 in the assay on MKN45 cells is less than 0.5 µM; on c-MET, less than 100 nM; at RON, 500 to 10000 nM.
The corresponding values for `CC(Oc1ccc2nc(NC(=O)NCCCN3CCCC3=O)sc2c1)c1c(Cl)ccc(F)c1Cl` (stereo not drawn) [Example 45, 1-{6-[1-(2,6-dichloro-3-fluorophenyl)ethoxy]-1,3-benzothiazol-2-yl}-3-[3-(2-oxopyrrolidin-1-yl)propyl]urea] are 0.5 to 10 µM, less than 100 nM and 500 to 10000 nM.
The corresponding values for `CC(Oc1ccc2nc(NC(=O)NCCCN3CCN(Cc4c(F)cccc4Cl)CC3)sc2c1)c1c(Cl)ccc(F)c1Cl` (stereo not drawn) [Example 46, 1-{3-[4-(2-chloro-6-fluorobenzyl)piperazin-1-yl]propyl}-3-{6-[1-(2,6-dichloro-3-fluorophenyl)ethoxy]-1,3-benzothiazol-2-yl}urea] are more than 10 µM, less than 100 nM and 500 to 10000 nM.
Turning to `CC(Oc1ccc2nc(NC(=O)NCCCN3C(C)CCCC3C)sc2c1)c1c(Cl)ccc(F)c1Cl` (stereo not drawn) [Example 47, 1-{6-[1-(2,6-dichloro-3-fluorophenyl)ethoxy]-1,3-benzothiazol-2-yl}-3-[3-(2,6-dimethylpiperidin-1-yl)propyl]urea], the IC50 in the assay on MKN45 cells was 0.5 to 10 µM; on c-MET it was less than 100 nM; at RON it was 500 to 10000 nM.
The corresponding values for `CC(Oc1ccc2nc(NC(=O)NCCCN3CCCCCC3)sc2c1)c1c(Cl)ccc(F)c1Cl` (stereo not drawn) [Example 48, 1-(3-azepan-1-ylpropyl)-3-{6-[1-(2,6-dichloro-3-fluorophenyl)ethoxy]-1,3-benzothiazol-2-yl}urea] are more than 10 µM, less than 100 nM and less than 500 nM.
Turning to `CC(Oc1ccc2nc(NC(=O)NCCCN3CCN(Cc4ccccc4)CC3)sc2c1)c1c(Cl)ccc(F)c1Cl` (stereo not drawn) [Example 49, 1-[3-(4-benzylpiperazin-1-yl)propyl]-3-{6-[1-(2,6-dichloro-3-fluorophenyl)ethoxy]-1,3-benzothiazol-2-yl}urea], the IC50 was 0.5 to 10 µM in the assay on MKN45 cells, less than 100 nM against c-MET and 500 to 10000 nM on RON.
The corresponding values for `CC(Oc1ccc2nc(NC(=O)NCCN3CCCCC3)sc2c1)c1c(Cl)ccc(F)c1Cl` (stereo not drawn) [Example 50, 1-{6-[1-(2,6-dichloro-3-fluorophenyl)ethoxy]-1,3-benzothiazol-2-yl}-3-(2-piperidin-1-ylethyl)urea] are 0.5 to 10 µM, less than 100 nM and 500 to 10000 nM.
The corresponding values for `CC(Oc1ccc2nc(NC(=O)NCCN3CCCC3)sc2c1)c1c(Cl)ccc(F)c1Cl` (stereo not drawn) [Example 51, 1-{6-[1-(2,6-dichloro-3-fluorophenyl)ethoxy]-1,3-benzothiazol-2-yl}-3-(2-pyrrolidin-1-ylethyl)urea] are 0.5 to 10 µM, less than 100 nM and 500 to 10000 nM.

The values are drawn from patent publication US8188078B2 (Sanofi-Aventis, priority 2007, dated 2012).
